Columns and labels:
[1] = tested on: Beet Armyworm (Spodoptera exigua, LAPHEG); test: Bioassay on Beet Armyworm (BAW), 128-well diet tray assay; assay type: in vivo; settings: 168 h, second instar BAW larvae, 50 μg/cm^2 on artificial diet, 25° C., five to seven days, average of eight wells, read-out: BAW % Control (or Mortality) rating
Protocol: (§1) Certain molecules disclosed in this document were tested against BAW and CL using procedures described in the following examples. In the reporting of the results, the “BAW & CL Rating Table” was used (See Table Section).
Bioassays on BAW were conducted using a 128-well diet tray assay. One to five second instar BAW larvae were placed in each well (3 mL) of the diet tray that had been previously filled with 1 mL of artificial diet to which 50 μg/cm^2 of the test molecule (dissolved in 50 μL of 90:10 acetone-water mixture) had been applied (to each of eight wells) and then allowed to dry. Trays were covered with a clear self-adhesive cover, vented to allow gas exchange, and held at 25° C., 14:10 light-dark for five to seven days. Percent mortality was recorded for the larvae in each well; activity in the eight wells was then averaged. The results are indicated in the table entitled “Table ABC: Biological Results” (See Table Section).

[2] = tested on: Cabbage Looper (Trichoplusia ni, TRIPNI); test: Bioassay on Cabbage Looper (CL), 128-well diet tray assay; assay type: in vivo; settings: 168 h, second instar CL larvae, 50 μg/cm^2 on artificial diet, 25° C., five to seven days, average of eight wells, read-out: CL % Control (or Mortality) rating
Protocol: as §1
Bioassays on CL were conducted using a 128-well diet tray assay. One to five second instar CL larvae were placed in each well (3 mL) of the diet tray that had been previously filled with 1 mL of artificial diet to which 50 μg/cm^2 of the test molecule (dissolved in 50 μL of 90:10 acetone-water mixture) had been applied (to each of eight wells) and then allowed to dry. Trays were covered with a clear self-adhesive cover, vented to allow gas exchange, and held at 25° C., 14:10 light-dark for five to seven days. Percent mortality was recorded for the larvae in each well; activity in the eight wells was then averaged. The results are indicated in the table entitled “Table ABC: Biological Results” (See Table Section).

Row | Compound | mortality at 50 µg/cm2 [1] [%] | mortality at 50 µg/cm2 [2] [%]
1 | COCc1ccc(C)cc1N1C(=O)CS/C1=N\C(=O)Nc1c(F)cc(OCc2ncn(-c3ccc(OC(F)(F)F)cc3)n2)cc1F [F19, (Z)-1-(2,6-Difluoro-4-((1-(4-(trifluoromethoxy)phenyl)-1H-1,2,4-triazol-3-yl)methoxy)phenyl)-3-(3-(2-(methoxymethyl)-5-methylphenyl)-4-oxothiazolidin-2-ylidene)urea] | 50 to 100 | 50 to 100
2 | CCCc1ccc(C)cc1N1C(=O)CS/C1=N\C(=O)Nc1ccc(COc2ncn(-c3ccc(OC(F)(F)F)cc3)n2)cc1F [F6, (Z)-1-(2-Fluoro-4-(((1-(4-(trifluoromethoxy)phenyl)-1H-1,2,4-triazol-3-yl)oxy)methyl)phenyl)-3-(3-(5-methyl-2-propylphenyl)-4-oxothiazolidin-2-ylidene)urea] | 50 to 100 | 50 to 100
3 | COC(C)c1ccc(C)cc1N1C(=O)CS/C1=N\C(=O)Nc1ccc(OCc2ncn(-c3ccc(OC(F)(F)F)cc3)n2)cc1F (stereo not shown) [F20, (Z)-1-(2-Fluoro-4-((1-(4-(trifluoromethoxy)phenyl)-1H-1,2,4-triazol-3-yl)methoxy)phenyl)-3-(3-(2-(1-methoxyethyl)-5-methylphenyl)-4-oxothiazolidin-2-ylidene)urea] | 50 to 100 | 50 to 100
4 | CCCc1ccc(C)cc1N1C(=O)CS/C1=N\C(=O)Nc1ccc(COc2ncn(-c3ccc(OC(F)(F)F)cc3)n2)cn1 [F13, (Z)-1-(3-(5-Methyl-2-propylphenyl)-4-oxothiazolidin-2-ylidene)-3-(5-(((1-(4-(trifluoromethoxy)phenyl)-1H-1,2,4-triazol-3-yl)oxy)methyl)pyridin-2-yl)urea] | 50 to 100 | 50 to 100
5 | COCc1ccc(C)cc1N1C(=O)CS/C1=N\C(=O)Nc1ccc(OCc2ncn(-c3ccc(OC(F)(F)F)cc3)n2)cc1OC [F34, (Z)-1-(2-Methoxy-4-((1-(4-(trifluoromethoxy)phenyl)-1H-1,2,4-triazol-3-yl)methoxy)phenyl)-3-(3-(2-(methoxymethyl)-5-methylphenyl)-4-oxothiazolidin-2-ylidene)urea] | 50 to 100 | 50 to 100
6 | Cc1ccc(C(C)C)c(N2C(=O)CS/C2=N\C(=O)Nc2ccc(COc3ncn(-c4ccc(OC(F)(F)F)cc4)n3)cc2)c1 [F1, (Z)-1-(3-(2-isopropyl-5-methylphenyl)-4-oxothiazolidin-2-ylidene)-3-(4-(((1-(4-(trifluoromethoxy)phenyl)-1H-1,2,4-triazol-3-yl)oxy)methyl)phenyl)urea] | 50 to 100 | 50 to 100
7 | Cc1ccc(C(C)C)c(N2C(=O)CS/C2=N\C(=O)Nc2ccc(OCc3ncn(-c4ccc(OC(F)(F)F)cc4)n3)cc2)c1 [F15, (Z)-1-(3-(2-Isopropyl-5-methylphenyl)-4-oxothiazolidin-2-ylidene)-3-(4-((1-(4-(trifluoromethoxy)phenyl)-1H-1,2,4-triazol-3-yl)methoxy)phenyl)urea] | 50 to 100 | 50 to 100
8 | Cc1ccc(C(C)C)c(N2C(=O)CS/C2=N\C(=O)Nc2ccc(OCc3ncn(-c4ccc(OC(F)(F)F)cc4)n3)cc2C)c1 [F25, (Z)-1-(3-(2-Isopropyl-5-methylphenyl)-4-oxothiazolidin-2-ylidene)-3-(2-methyl-4-((1-(4-(trifluoromethoxy)phenyl)-1H-1,2,4-triazol-3-yl)methoxy)phenyl)urea] | 50 to 100 | 50 to 100
9 | CCCc1ccc(C)cc1N1C(=O)CS/C1=N\C(=O)Nc1ccc(OCc2ncn(-c3ccc(OC(F)(F)F)cc3)n2)nc1 [F45, (Z)-1-(3-(5-Methyl-2-propylphenyl)-4-oxothiazolidin-2-ylidene)-3-(6-((1-(4-(trifluoromethoxy)phenyl)-1H-1,2,4-triazol-3-yl)methoxy)pyridin-3-yl)urea] | 0 to 50 | 0
10 | CCCc1ccc(C)cc1N1C(=O)CS/C1=N\C(=O)Nc1ccc(OCc2ncn(-c3ccc(OC(F)(F)F)cc3)n2)cc1OC [F33, (Z)-1-(2-Methoxy-4-((1-(4-(trifluoromethoxy)phenyl)-1H-1,2,4-triazol-3-yl)methoxy)phenyl)-3-(3-(5-methyl-2-propylphenyl)-4-oxothiazolidin-2-ylidene)urea] | 50 to 100 | 50 to 100
11 | CCCc1ccc(C)cc1N1C(=O)CS/C1=N\C(=O)Nc1ccc(COc2ncn(-c3ccc(OC(F)(F)F)cc3)n2)c(F)c1 [F7, (Z)-1-(3-Fluoro-4-(((1-(4-(trifluoromethoxy)phenyl)-1H-1,2,4-triazol-3-yl)oxy)methyl)phenyl)-3-(3-(5-methyl-2-propylphenyl)-4-oxothiazolidin-2-ylidene)urea] | 50 to 100 | 50 to 100
12 | CCCc1ccc(C)cc1N1C(=O)CS/C1=N\C(=O)Nc1ccc(OCc2ncn(-c3ccc(OC(F)(F)F)cc3)n2)c(Cl)c1 [F39, (Z)-1-(3-Chloro-4-((1-(4-(trifluoromethoxy)phenyl)-1H-1,2,4-triazol-3-yl)methoxy)phenyl)-3-(3-(5-methyl-2-propylphenyl)-4-oxothiazolidin-2-ylidene)urea] | 50 to 100 | 50 to 100
13 | Cc1ccc(C(C)C)c(N2C(=O)CS/C2=N\C(=O)Nc2c(F)cc(OCc3ncn(-c4ccc(OC(F)(F)F)cc4)n3)cc2F)c1 [F18, (Z)-1-(2,6-Difluoro-4-((1-(4-(trifluoromethoxy)phenyl)-1H-1,2,4-triazol-3-yl)methoxy)phenyl)-3-(3-(2-isopropyl-5-methylphenyl)-4-oxothiazolidin-2-ylidene)urea] | 50 to 100 | 50 to 100
14 | Cc1ccc(C(C)C)c(N2C(=O)CS/C2=N\C(=O)Nc2ccc(OCc3ncn(-c4ccc(OC(F)(F)F)cc4)n3)nc2)c1 [F44, (Z)-1-(3-(2-Isopropyl-5-methylphenyl)-4-oxothiazolidin-2-ylidene)-3-(6-((1-(4-(trifluoromethoxy)phenyl)-1H-1,2,4-triazol-3-yl)methoxy)pyridin-3-yl)urea] | 50 to 100 | 50 to 100
15 | COCc1ccc(C)cc1N1C(=O)CS/C1=N\C(=O)Nc1ccc(COc2ncn(-c3ccc(OC(F)(F)F)cc3)n2)c(OC)c1 [F11, (Z)-1-(3-Methoxy-4-(((1-(4-(trifluoromethoxy)phenyl)-1H-1,2,4-triazol-3-yl)oxy)methyl)phenyl)-3-(3-(2-(methoxymethyl)-5-methylphenyl)-4-oxothiazolidin-2-ylidene)urea] | 0 | 0
16 | COc1cc(NC(=O)/N=C2\SCC(=O)N2c2cc(C)ccc2C(C)C)ccc1COc1ncn(-c2ccc(OC(F)(F)F)cc2)n1 [F4, (Z)-1-(3-(2-Isopropyl-5-methylphenyl)-4-oxothiazolidin-2-ylidene)-3-(3-methoxy-4-(((1-(4-(trifluoromethoxy)phenyl)-1H-1,2,4-triazol-3-yl)oxy)methyl)phenyl)urea] | 50 to 100 | 50 to 100
17 | COCc1ccc(C)cc1N1C(=O)CS/C1=N\C(=O)Nc1ccc(OCc2ncn(-c3ccc(OC(F)(F)F)cc3)n2)cc1C [F27, (Z)-1-(3-(2-(Methoxymethyl)-5-methylphenyl)-4-oxothiazolidin-2-ylidene)-3-(2-methyl-4-((1-(4-(trifluoromethoxy)phenyl)-1H-1,2,4-triazol-3-yl)methoxy)phenyl)urea] | 50 to 100 | 50 to 100
18 | Cc1ccc(C(C)C)c(N2C(=O)CS/C2=N\C(=O)Nc2ccc(COc3ncn(-c4ccc(OC(F)(F)F)cc4)n3)cn2)c1 [F14, (Z)-1-(3-(2-Isopropyl-5-methylphenyl)-4-oxothiazolidin-2-ylidene)-3-(5-(((1-(4-(trifluoromethoxy)phenyl)-1H-1,2,4-triazol-3-yl)oxy)methyl)pyridin-2-yl)urea] | 50 to 100 | 50 to 100
19 | CCCc1ccc(C)cc1N1C(=O)CS/C1=N\C(=O)Nc1ccc(COc2ncn(-c3ccc(OC(F)(F)F)cc3)n2)c(OC)c1 [F10, (Z)-1-(3-Methoxy-4-(((1-(4-(trifluoromethoxy)phenyl)-1H-1,2,4-triazol-3-yl)oxy)methyl)phenyl)-3-(3-(5-methyl-2-propylphenyl)-4-oxothiazolidin-2-ylidene)urea] | 0 | 0
20 | Cc1ccc(C(C)C)c(N2C(=O)CS/C2=N\C(=O)Nc2ccc(OCc3ncn(-c4ccc(OC(F)(F)F)cc4)n3)c(Cl)c2)c1 [F38, (Z)-1-(3-Chloro-4-((1-(4-(trifluoromethoxy)phenyl)-1H-1,2,4-triazol-3-yl)methoxy)phenyl)-3-(3-(2-isopropyl-5-methylphenyl)-4-oxothiazolidin-2-ylidene)urea] | 50 to 100 | 50 to 100
